Measured values published in US20260294922A1, “Inhibitors of JUN N-Terminal Kinases (JNK1, JNK2, and/or JNK3) and Mitogen-Activated Protein Kinases (MAPK8, MAPK9, and/or MAPK10) and Methods of Using Same” (Baylor College of Medicine, priority 2023, published 2026).

What was measured:
MYLK = target: T1, MYLK (Homo sapiens, UniProt Q15746); test: ThermoFisher SelectScreen, MYLK; type: binding; conditions: Table 4
T1 construct: purchased ThermoFisher (SelectScreen, outsourced service)
Procedure: (§1) To mitigate violation of the linear initial velocity principle, which is a problem in end-point assays when doing dose-responses, the enzyme concentration was carefully optimized, in a total assay volume of 25 μL. The assay was performed using 10 μM ATP, 0.02% Tween-20, kinase buffer from Cell Signaling (#9802) in white 384-well plates. The kinase reaction was done for 30 or 60 min at 30° C., and detection of leftover ATP was measured according to Promega's protocol. […] Fractional activities were obtained from normalized data. Non-linear regression (GraphPad Prism7) and a modified Morrison equation for tight binding was used to determine apparent Ki values for inhibitors, assuming no particular mode of inhibition. An orthogonal binding assay (LanthaScreen) was outsourced to ThermoFisher Scientific's SelectScreen Services to determine IC50 values.
(§2) One of the earliest compounds to be synthesized with favorable enzymatic activity towards JNK1 and JNK3 was CDD-2346. A KINOMEscan was performed for CDD-2346 to establish whether the selectivity of this chemical scaffold was suitable or required optimization. […] To confirm that the activity against each kinase was a true result and not a false positive, CDD-2346 was evaluated in kinase assays using ThermoFisher SelectScreen platform. The results from these assays are provided herein (Table 4). The important innovative steps described are the optimization of selectivity a) for JNK isoforms; b) for kinases considered “in-pathway”; and c) to avoid kinases considered “out-of-pathway”.

JNK2 [1] = target: T2, JNK2 (Homo sapiens, UniProt P45984); test: Promega NanoBRET intracellular target engagement (tracer K10 displacement), JNK2; type: cell-based
hVPS34 = target: T3, hVPS34 (Homo sapiens, UniProt Q8NEB9); test: ThermoFisher SelectScreen, hVPS34; type: binding; conditions: Table 4
T3 construct: purchased ThermoFisher (SelectScreen, outsourced service)
Procedure: as §1, §2

JNK2 [2] = target: T2, JNK2; test: JNK2 kinase (intrinsic ATPase, Kinase-Glo) assay; type: biochemical; conditions: Table 3a; read-out: Kd JNK2
CSNK1E = target: T4, CSNK1E (Homo sapiens, UniProt P49674); test: ThermoFisher SelectScreen, CSNK1E; type: binding
T4 construct: purchased ThermoFisher (SelectScreen)

JNK3 = JNK3 (Homo sapiens, UniProt P53779); test: Promega NanoBRET intracellular target engagement (tracer K10 displacement), JNK3; type: cell-based
MEK4 = target: T5, MEK4 (Homo sapiens, UniProt P45985); test: ThermoFisher SelectScreen, MEK4; type: binding
T5 construct: purchased ThermoFisher (SelectScreen)
T5 sequence (P45985 1-399): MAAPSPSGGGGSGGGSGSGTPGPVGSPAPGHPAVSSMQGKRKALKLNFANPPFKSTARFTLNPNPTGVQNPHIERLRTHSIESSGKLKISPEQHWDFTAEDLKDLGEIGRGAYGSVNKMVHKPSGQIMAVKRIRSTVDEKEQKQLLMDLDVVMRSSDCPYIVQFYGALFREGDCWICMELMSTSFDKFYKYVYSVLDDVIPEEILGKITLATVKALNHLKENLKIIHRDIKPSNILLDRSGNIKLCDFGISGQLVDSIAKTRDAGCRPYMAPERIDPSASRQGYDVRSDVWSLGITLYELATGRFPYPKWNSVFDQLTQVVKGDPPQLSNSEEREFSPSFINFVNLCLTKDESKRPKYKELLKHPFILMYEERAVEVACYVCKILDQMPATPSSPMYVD

DYRK2 = target: T6, DYRK2 (Homo sapiens, UniProt Q92630); test: ThermoFisher SelectScreen, DYRK2; type: binding; conditions: Table 4
T6 construct: purchased ThermoFisher (SelectScreen)
T6 sequence (Q92630 1-601): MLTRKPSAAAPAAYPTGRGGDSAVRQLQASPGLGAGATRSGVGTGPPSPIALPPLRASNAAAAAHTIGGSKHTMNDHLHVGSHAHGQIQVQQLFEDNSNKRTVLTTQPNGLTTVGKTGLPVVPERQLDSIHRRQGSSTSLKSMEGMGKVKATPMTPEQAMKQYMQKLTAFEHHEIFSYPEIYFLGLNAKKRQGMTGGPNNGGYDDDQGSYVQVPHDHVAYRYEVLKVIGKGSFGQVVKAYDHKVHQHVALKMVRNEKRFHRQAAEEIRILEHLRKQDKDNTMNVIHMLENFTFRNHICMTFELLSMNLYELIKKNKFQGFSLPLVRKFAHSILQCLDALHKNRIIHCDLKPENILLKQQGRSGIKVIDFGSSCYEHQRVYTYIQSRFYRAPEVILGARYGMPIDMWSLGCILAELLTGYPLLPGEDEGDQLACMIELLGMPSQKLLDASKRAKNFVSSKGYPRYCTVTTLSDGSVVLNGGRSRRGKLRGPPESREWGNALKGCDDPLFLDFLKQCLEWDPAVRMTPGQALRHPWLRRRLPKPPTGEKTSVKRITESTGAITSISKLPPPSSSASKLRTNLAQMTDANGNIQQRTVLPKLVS
Procedure: as §1, §2

JNK1 = JNK1 (Homo sapiens, UniProt P45983); test: Promega NanoBRET intracellular target engagement (tracer K10 displacement), JNK1; type: cell-based
JNK1, sequence (P45983 whole entry): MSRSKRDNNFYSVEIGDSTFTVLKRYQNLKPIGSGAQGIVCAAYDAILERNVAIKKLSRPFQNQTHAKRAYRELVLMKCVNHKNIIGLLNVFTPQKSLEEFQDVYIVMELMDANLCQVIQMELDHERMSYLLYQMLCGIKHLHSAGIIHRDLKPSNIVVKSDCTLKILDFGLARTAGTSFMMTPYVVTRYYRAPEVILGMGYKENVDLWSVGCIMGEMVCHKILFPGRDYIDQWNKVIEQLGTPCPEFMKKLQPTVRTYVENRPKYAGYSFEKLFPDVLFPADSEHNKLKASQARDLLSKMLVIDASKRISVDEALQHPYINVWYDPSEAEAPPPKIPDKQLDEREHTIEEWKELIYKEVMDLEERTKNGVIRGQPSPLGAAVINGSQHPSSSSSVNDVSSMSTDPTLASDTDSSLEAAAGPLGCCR

T2 sequence (P45984 whole entry): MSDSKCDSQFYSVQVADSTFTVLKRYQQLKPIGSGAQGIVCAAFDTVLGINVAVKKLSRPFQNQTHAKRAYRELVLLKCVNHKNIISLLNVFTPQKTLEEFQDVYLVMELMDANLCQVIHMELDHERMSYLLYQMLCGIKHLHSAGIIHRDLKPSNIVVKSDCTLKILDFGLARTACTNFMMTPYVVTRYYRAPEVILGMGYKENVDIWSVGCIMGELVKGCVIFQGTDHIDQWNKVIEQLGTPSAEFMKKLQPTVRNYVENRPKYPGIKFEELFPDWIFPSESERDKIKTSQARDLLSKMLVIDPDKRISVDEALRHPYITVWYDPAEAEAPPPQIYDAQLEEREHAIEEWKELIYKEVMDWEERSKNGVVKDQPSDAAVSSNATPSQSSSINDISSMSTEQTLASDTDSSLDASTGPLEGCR
T4 sequence (P49674 whole entry): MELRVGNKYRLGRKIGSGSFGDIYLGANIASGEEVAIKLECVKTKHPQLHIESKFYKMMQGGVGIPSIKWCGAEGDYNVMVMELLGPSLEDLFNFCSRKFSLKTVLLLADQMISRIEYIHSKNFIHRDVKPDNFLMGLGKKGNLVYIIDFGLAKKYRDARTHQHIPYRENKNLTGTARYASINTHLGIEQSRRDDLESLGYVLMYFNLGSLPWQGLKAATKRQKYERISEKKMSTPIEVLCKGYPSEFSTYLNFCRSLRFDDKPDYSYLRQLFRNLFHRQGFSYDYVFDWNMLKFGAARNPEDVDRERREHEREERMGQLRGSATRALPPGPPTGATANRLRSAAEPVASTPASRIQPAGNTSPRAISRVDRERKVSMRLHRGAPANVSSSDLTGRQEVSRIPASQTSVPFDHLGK
JNK3, sequence (P53779 whole entry): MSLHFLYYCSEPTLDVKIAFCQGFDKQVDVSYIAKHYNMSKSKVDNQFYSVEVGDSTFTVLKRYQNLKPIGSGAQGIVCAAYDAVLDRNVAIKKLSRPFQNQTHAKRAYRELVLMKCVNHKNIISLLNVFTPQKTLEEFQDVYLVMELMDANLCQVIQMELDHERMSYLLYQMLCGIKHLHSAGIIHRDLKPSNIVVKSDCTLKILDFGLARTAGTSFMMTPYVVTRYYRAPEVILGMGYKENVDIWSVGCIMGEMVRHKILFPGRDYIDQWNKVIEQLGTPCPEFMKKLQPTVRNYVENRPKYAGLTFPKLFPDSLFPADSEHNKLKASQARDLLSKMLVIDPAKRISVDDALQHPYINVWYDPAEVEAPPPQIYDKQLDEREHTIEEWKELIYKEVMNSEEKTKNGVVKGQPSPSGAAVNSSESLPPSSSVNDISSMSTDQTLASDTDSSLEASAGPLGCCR
T3 sequence (Q8NEB9 whole entry): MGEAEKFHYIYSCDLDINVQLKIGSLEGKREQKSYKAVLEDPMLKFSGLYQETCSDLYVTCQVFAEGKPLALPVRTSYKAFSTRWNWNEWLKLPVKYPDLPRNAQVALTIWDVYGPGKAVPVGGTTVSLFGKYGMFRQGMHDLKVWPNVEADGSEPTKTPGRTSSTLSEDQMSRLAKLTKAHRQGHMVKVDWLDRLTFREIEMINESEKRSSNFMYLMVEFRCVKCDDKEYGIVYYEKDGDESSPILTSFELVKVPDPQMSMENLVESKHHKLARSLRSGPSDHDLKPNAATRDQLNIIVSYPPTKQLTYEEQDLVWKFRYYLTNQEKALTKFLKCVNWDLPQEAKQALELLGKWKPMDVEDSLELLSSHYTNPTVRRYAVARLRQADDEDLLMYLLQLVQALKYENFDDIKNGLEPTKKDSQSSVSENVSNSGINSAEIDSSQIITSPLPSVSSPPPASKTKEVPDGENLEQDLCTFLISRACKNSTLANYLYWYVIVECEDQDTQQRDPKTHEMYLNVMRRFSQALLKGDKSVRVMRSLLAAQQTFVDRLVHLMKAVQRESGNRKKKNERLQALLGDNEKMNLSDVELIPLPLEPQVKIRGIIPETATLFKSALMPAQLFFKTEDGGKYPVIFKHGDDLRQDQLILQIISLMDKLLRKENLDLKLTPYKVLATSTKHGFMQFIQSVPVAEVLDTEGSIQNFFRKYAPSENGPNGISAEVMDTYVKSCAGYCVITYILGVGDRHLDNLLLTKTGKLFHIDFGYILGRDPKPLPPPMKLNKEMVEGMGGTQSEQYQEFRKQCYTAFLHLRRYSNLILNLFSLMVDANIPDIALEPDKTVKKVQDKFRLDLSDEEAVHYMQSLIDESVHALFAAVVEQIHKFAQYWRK
T1 sequence (Q15746 whole entry): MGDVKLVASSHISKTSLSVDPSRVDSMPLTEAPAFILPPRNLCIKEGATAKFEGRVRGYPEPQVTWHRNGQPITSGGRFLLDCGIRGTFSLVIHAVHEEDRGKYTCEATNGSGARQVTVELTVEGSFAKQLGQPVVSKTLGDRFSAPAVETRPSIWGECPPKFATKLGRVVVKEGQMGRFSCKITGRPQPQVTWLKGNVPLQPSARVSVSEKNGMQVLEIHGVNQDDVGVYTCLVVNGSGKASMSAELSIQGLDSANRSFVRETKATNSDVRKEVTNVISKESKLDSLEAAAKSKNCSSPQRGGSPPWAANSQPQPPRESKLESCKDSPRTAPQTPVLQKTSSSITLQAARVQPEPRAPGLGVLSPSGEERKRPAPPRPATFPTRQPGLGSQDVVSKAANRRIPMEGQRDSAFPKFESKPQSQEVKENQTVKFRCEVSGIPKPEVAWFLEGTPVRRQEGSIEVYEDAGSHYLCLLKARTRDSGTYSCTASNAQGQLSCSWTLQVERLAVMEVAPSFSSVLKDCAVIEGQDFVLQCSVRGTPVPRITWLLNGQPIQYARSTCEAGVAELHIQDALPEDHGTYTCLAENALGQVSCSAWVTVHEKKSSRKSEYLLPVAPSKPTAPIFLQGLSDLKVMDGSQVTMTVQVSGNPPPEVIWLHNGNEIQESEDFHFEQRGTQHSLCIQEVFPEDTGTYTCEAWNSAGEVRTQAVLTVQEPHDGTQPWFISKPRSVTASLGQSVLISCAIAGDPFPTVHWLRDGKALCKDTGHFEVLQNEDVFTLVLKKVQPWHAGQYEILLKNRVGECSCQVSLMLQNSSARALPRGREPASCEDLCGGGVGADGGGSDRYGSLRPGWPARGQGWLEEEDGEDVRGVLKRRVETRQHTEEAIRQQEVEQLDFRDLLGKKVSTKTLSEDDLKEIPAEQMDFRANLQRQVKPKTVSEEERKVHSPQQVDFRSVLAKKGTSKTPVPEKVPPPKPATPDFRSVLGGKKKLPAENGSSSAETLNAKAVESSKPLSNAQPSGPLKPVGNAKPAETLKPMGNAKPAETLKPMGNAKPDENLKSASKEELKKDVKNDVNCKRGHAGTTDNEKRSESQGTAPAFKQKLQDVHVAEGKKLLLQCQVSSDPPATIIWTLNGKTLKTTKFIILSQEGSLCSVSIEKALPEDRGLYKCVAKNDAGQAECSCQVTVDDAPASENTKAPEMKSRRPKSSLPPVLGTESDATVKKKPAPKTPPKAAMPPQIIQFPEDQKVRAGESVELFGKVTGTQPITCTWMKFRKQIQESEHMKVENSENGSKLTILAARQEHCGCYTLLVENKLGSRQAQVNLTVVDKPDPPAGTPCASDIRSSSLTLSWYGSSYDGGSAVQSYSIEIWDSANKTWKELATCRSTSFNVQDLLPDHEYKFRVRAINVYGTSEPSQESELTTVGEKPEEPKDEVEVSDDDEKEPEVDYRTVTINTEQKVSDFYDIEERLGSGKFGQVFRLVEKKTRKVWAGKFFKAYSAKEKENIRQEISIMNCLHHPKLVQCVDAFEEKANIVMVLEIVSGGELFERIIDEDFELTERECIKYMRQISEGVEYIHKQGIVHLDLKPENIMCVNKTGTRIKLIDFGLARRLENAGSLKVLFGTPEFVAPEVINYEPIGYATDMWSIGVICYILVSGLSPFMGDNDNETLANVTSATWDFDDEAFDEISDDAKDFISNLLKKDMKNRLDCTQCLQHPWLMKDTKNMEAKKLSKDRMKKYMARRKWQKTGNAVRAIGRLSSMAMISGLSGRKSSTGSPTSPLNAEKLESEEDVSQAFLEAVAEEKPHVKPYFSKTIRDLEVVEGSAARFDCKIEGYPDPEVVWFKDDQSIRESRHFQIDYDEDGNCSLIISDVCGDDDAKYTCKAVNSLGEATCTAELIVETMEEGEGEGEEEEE

Row | Structure (SMILES) | Kd (MYLK) | IC50 (JNK2 [1]) | Kd (hVPS34) | Kd (JNK2 [2]) | Kd (CSNK1E) | IC50 (JNK3) | Kd (MEK4) | Kd (DYRK2) | IC50 (JNK1) | inhibition of binding to JNK1, JNK2, and JNK3 relative to staurosporine (JNK1; NanoBRET) | improvement of NanoBRET IC50 for JNK1 (CDD-2346/CDD-2728) (JNK1; relative to CDD-2346)
1 | CNCc1ccc(NC(=O)c2ccn3ncc(-c4cnc5[nH]ccc5c4)c3c2)cc1 [CDD-2346, N-(4-((methylamino)methyl)phenyl)-3-(1H-pyrrolo[2,3-b]pyridin-5-yl)pyrazolo[1,5-a]pyridine-5-carboxamide] | 442 nM | 1700 nM | 109 nM | 0.94 ± 0.22 nM | 48 nM | 3000 nM | 18 nM | 78 nM | 5100 nM | superior to staurosporine | 
2 | CN(C)Cc1ccc(NC(=O)c2ccn3ncc(-c4cnc5[nH]ccc5c4)c3c2)cc1 [CDD-2482, N-(4-((dimethylamino)methyl)phenyl)-3-(1H-pyrrolo[2,3-b]pyridin-5-yl)pyrazolo[1,5-a]pyridine-5-carboxamide] | 501 nM |  | 255 nM | 0.74 ± 0.09 nM | 29 nM |  | 9 nM | 48 nM |  |  | 
3 | O=C(Nc1ccc(F)cc1)c1ccn2ncc(-c3cnc4[nH]ccc4c3)c2c1 [CDD-2486, N-(4-fluorophenyl)-3-(1H-pyrrolo[2,3-b]pyridin-5-yl)pyrazolo[1,5-a]pyridine-5-carboxamide] | 942 nM | 442 nM | 1140 nM | 0.67 ± 0.09 nM | 235 nM | 468 nM | 26.2 nM | 288 nM | 770 nM |  | 
4 | CN(C)C(=O)c1cc(NC(=O)c2cc3c(-c4cnc5[nH]ccc5c4)cccc3s2)ccc1O [CDD-2728, N-(3-(dimethylcarbamoyl)-4-hydroxyphenyl)-4-(1H-pyrrolo[2,3-b]pyridin-5-yl)benzo[b]thiophene-2-carboxamide] |  | 570 nM |  |  | 1070 nM | 534 nM | 18 nM |  | 599 nM |  | 8.5 fold
